# Reference: publication PMC11520566, “Discovery of pyrazole-based analogs as CDK2 inhibitors with apoptotic-inducing activity: design, synthesis and molecular dynamics study” (RSC Advances, 2024)
# Key:
# Format in all cases: cell-based, human
# [1] = tested on: SN12C; assay: NCI 60 five dose assay, Renal cancer
# [2] = tested on: 786-0; assay: NCI 60 five dose assay, Renal cancer
# [3] = tested on: K-562; assay: NCI 60 five dose assay, Leukemia
# [4] = tested on: U251; assay: NCI 60 five dose assay, CNS cancer
# [5] = tested on: NCI 60 cancer cell lines; assay: NCI 60 single dose screen, mean over full panel; settings: mean over NCI 60 cell lines; single dose 10 μM
# Method: (§1) The newly synthesized pyrazoles 2a–g, 7a–d, 8a and b, 9, and 10 were submitted to the National Cancer Institute (NCI) Developmental Therapeutics Program (http://www.dtp.nci.nih.gov) for assessment of their potential antiproliferative activity against a panel of NCI 60 cancer cell lines. All compounds were approved for screening against the approved 60 cancer cell lines at a single dose of 10 μM. The human cancer cell lines were derived from 9 variant cancer types including leukemia, melanoma, lung, colon, CNS, ovarian, renal, prostate and breast cancers. The results are presented as percentage of growth inhibition (GI%) of the screened compounds against the full panel of cell lines.
# Under sterile conditions, the cell lines were grown in RPMI 1640 media (Gibco, NY, USA) supplemented with 10% fetal bovine serum (Biocell, CA, USA), and […] cell/mL was used to test the growth inhibition activity of the synthesized compounds. The compounds with concentrations ranging from 0.01 to 100 μM were prepared in phosphate buffer saline. Each compound was initially solubilized in dimethyl sulfoxide (DMSO); however, each final dilution contained less than 1% DMSO. Solutions of different concentrations (0.2 mL) were pipetted into the separate well of a microtiter tray in duplicate. Cell culture (1.8 mL) containing a cell population of […] cells per mL was pipetted into each well. Controls, containing only phosphate buffer saline and DMSO at identical dilutions, were also prepared in the same manner. These cultures were incubated in a humidified incubator at 37 °C. The incubator was supplied with 5% CO2 atmosphere. After 48 h, the cells in each well were diluted 10 times with saline and counted using a Coulter counter. The counts were corrected for the dilution.[34]
# [6] = tested on: RXF 393; assay: NCI 60 five dose assay, Renal cancer
# [7] = tested on: NCI-H23; assay: NCI 60 five dose assay, Non-small cell lung cancer
# [8] = tested on: SF-295; assay: NCI 60 single dose screen, CNS cancer; settings: single dose 10 μM
# Method: as §1
# (§2) Under sterile conditions, the cell lines were grown in RPMI 1640 media (Gibco, NY, USA) supplemented with 10% fetal bovine serum (Biocell, CA, USA), and […] cell/mL was used to test the growth inhibition activity of the synthesized compounds. The compounds with concentrations ranging from 0.01 to 100 μM were prepared in phosphate buffer saline. Each compound was initially solubilized in dimethyl sulfoxide (DMSO); however, each final dilution contained less than 1% DMSO. Solutions of different concentrations (0.2 mL) were pipetted into the separate well of a microtiter tray in duplicate. […] After 48 h, the cells in each well were diluted 10 times with saline and counted using a Coulter counter. […]
# [9] = tested on: SF-268; assay: NCI 60 single dose screen, CNS cancer; settings: single dose 10 μM
# Method: as §1, §2
# [10] = tested on: SF-268; assay: NCI 60 five dose assay, CNS cancer
# [11] = tested on: OVCAR-4; assay: NCI 60 five dose assay, Ovarian cancer
# [12] = tested on: HL-60(TB); assay: NCI 60 five dose assay, Leukemia
# [13] = tested on: OVCAR-5; assay: NCI 60 five dose assay, Ovarian cancer
# [14] = tested on: NCI-H322M; assay: NCI 60 five dose assay, Non-small cell lung cancer
# [15] = tested on: SF-295; assay: NCI 60 five dose assay, CNS cancer
# [16] = Homo sapiens, read-out: LC50 (the source's name)
structure (smiles),measurement,setting,value
"CC(=NNc1ccc(S(N)(=O)=O)cc1)c1ccc(NN=C2C(=O)NN=C2Nc2ccccc2)cc1 [Compound 4, 4-(2-(1-(4-(2-(5-oxo-3-(phenylamino)-1,5-dihydro-4H-pyrazol-4-ylidene)hydrazinyl)phenyl)ethylidene)hydrazinyl)benzene sulfonamide]",GI50,[1]; Homo sapiens,2.38 µM
same,CC50,[1]; [16],23.5 µM
same,Percent Growth,[1]; Log10 Concentration -4.0 Molar,-100%
same,Percent Growth,[1]; Log10 Concentration -5.0 Molar,-21%
same,Percent Growth,[1]; Log10 Concentration -6.0 Molar,93%
same,Percent Growth,[1]; Log10 Concentration -7.0 Molar,92%
same,Percent Growth,[1]; Log10 Concentration -8.0 Molar,95%
same,GI50,[2]; Homo sapiens,2.14 µM
same,CC50,[2]; [16],24.7 µM
same,Percent Growth,[2]; Log10 Concentration -4.0 Molar,-94%
same,Percent Growth,[2]; Log10 Concentration -5.0 Molar,-22%
same,Percent Growth,[2]; Log10 Concentration -6.0 Molar,85%
same,Percent Growth,[2]; Log10 Concentration -7.0 Molar,96%
same,Percent Growth,[2]; Log10 Concentration -8.0 Molar,92%
same,GI50,"[3]; Homo sapiens, K562",2.29 µM
same,CC50,"[3]; Homo sapiens, K562, read-out: LC50 (the source's name)",22.8 µM
same,Percent Growth,[3]; Log10 Concentration -4.0 Molar,-100%
same,Percent Growth,[3]; Log10 Concentration -5.0 Molar,-22%
same,Percent Growth,[3]; Log10 Concentration -6.0 Molar,90%
same,Percent Growth,[3]; Log10 Concentration -7.0 Molar,87%
same,Percent Growth,[3]; Log10 Concentration -8.0 Molar,88%
same,GI50,"[4]; Homo sapiens, U-251",1.88 µM
same,CC50,"[4]; Homo sapiens, U-251, read-out: LC50 (the source's name)",7.51 µM
same,Percent Growth,[4]; Log10 Concentration -4.0 Molar,-100%
same,Percent Growth,[4]; Log10 Concentration -5.0 Molar,-71%
same,Percent Growth,[4]; Log10 Concentration -6.0 Molar,96%
same,Percent Growth,[4]; Log10 Concentration -7.0 Molar,105%
same,Percent Growth,[4]; Log10 Concentration -8.0 Molar,95%
same,mean GI%,[5],96.47%
same,GI50,[6]; Homo sapiens,1.1 µM
same,CC50,[6]; [16],21.1 µM
same,Percent Growth,[6]; Log10 Concentration -4.0 Molar,-76%
same,Percent Growth,[6]; Log10 Concentration -5.0 Molar,-37%
same,Percent Growth,[6]; Log10 Concentration -6.0 Molar,54%
same,Percent Growth,[6]; Log10 Concentration -7.0 Molar,99%
same,Percent Growth,[6]; Log10 Concentration -8.0 Molar,103%
same,GI50,[7]; Homo sapiens,2.54 µM
same,CC50,[7]; [16],23.1 µM
same,Percent Growth,[7]; Log10 Concentration -4.0 Molar,-98%
same,Percent Growth,[7]; Log10 Concentration -5.0 Molar,-23%
same,Percent Growth,[7]; Log10 Concentration -6.0 Molar,99%
same,Percent Growth,[7]; Log10 Concentration -7.0 Molar,105%
same,Percent Growth,[7]; Log10 Concentration -8.0 Molar,105%
same,GI%,[8],94.88%
same,GI%,[9],90.67%
same,GI50,[10]; Homo sapiens,2.22 µM
same,CC50,[10]; [16],31.5 µM
same,Percent Growth,[10]; Log10 Concentration -4.0 Molar,-77%
same,Percent Growth,[10]; Log10 Concentration -5.0 Molar,-23%
same,Percent Growth,[10]; Log10 Concentration -6.0 Molar,89%
same,Percent Growth,[10]; Log10 Concentration -7.0 Molar,95%
same,Percent Growth,[10]; Log10 Concentration -8.0 Molar,85%
same,GI50,[11]; Homo sapiens,2.84 µM
same,CC50,[11]; [16],40.7 µM
same,Percent Growth,[11]; Log10 Concentration -4.0 Molar,-80%
same,Percent Growth,[11]; Log10 Concentration -5.0 Molar,-3%
same,Percent Growth,[11]; Log10 Concentration -6.0 Molar,94%
same,Percent Growth,[11]; Log10 Concentration -7.0 Molar,98%
same,Percent Growth,[11]; Log10 Concentration -8.0 Molar,94%
same,GI50,[12]; Homo sapiens,2.86 µM
same,CC50,[12]; [16],60.5 µM
same,Percent Growth,[12]; Log10 Concentration -4.0 Molar,-70%
same,Percent Growth,[12]; Log10 Concentration -5.0 Molar,21%
same,Percent Growth,[12]; Log10 Concentration -6.0 Molar,74%
same,Percent Growth,[12]; Log10 Concentration -7.0 Molar,87%
same,Percent Growth,[12]; Log10 Concentration -8.0 Molar,89%
same,GI50,[13]; Homo sapiens,11 µM
same,CC50,[13]; [16],54.2 µM
same,Percent Growth,[13]; Log10 Concentration -4.0 Molar,-88%
same,Percent Growth,[13]; Log10 Concentration -5.0 Molar,56%
same,Percent Growth,[13]; Log10 Concentration -6.0 Molar,93%
same,Percent Growth,[13]; Log10 Concentration -7.0 Molar,96%
same,Percent Growth,[13]; Log10 Concentration -8.0 Molar,95%
same,GI50,[14]; Homo sapiens,3.72 µM
same,CC50,[14]; [16],41.9 µM
same,Percent Growth,[14]; Log10 Concentration -4.0 Molar,-93%
same,Percent Growth,[14]; Log10 Concentration -5.0 Molar,21%
same,Percent Growth,[14]; Log10 Concentration -6.0 Molar,89%
same,Percent Growth,[14]; Log10 Concentration -7.0 Molar,99%
same,Percent Growth,[14]; Log10 Concentration -8.0 Molar,103%
same,GI50,[15]; Homo sapiens,3.67 µM
same,CC50,[15]; [16],38.7 µM
same,Percent Growth,[15]; Log10 Concentration -4.0 Molar,-95%
same,Percent Growth,[15]; Log10 Concentration -5.0 Molar,15%
same,Percent Growth,[15]; Log10 Concentration -6.0 Molar,96%
same,Percent Growth,[15]; Log10 Concentration -7.0 Molar,96%
same,Percent Growth,[15]; Log10 Concentration -8.0 Molar,83%
